The values below come from ChEMBL document CHEMBL5230103, “Hydroxamic acid hybrids as the potential anticancer agents: An Overview” (Eur J Med Chem, 2020).

Structures can show the parent of a compound that is named as a salt.

The term IC50 denotes the point on the concentration scale where inhibition reaches its midpoint. The term GI50 denotes the concentration at which growth is held to half of that of the control.

One series deals with U2OS. Nature of the series: cells. In kind it is functional, cell-based. The conditions noted are these: Homo sapiens, 72 h.
For series [1], the system named is HepG2. Kind of series: Cytotoxicity against human HepG2 cells assessed as inhibition of cell growth measured after 72 hrs by MTT assay. In kind it is functional, cell-based. The conditions noted are these: HepG2, 72 h.
Series [2] has as its system MCF7. Nature of the series: cells. In kind it is functional, cell-based. The conditions noted are these: Homo sapiens, MCF7, 72 h.
Description: Cytotoxicity against human MCF7 cells assessed as inhibition of cell growth measured after 72 hrs by MTT assay
For series [3], the system named is NCI-H23. Kind of series: Cytotoxicity against human NCI-H23 cells assessed as inhibition of cell growth by MTT assay. In kind it is functional, cell-based. In general terms: Formazan colour is commonly taken as a measure of viable cells.
The test system of series [4] is PC-3. Nature of the series: Cytotoxicity against human PC-3 cells assessed as inhibition of cell growth by MTT assay. In kind it is functional, cell-based.
Series [5] relates to NCI-H23. Kind of series: Potency index, ratio of vorinostat IC50 to test compound IC50 for cytotoxicity against human NCI-H23 cells assessed as inhibition of cell growth by MTT assay. In kind it is functional.
The target of a further series is Histone deacetylase. Nature of the series: Inhibition of HDAC (unknown origin). In kind it is protein assay, Homo sapiens.
The subject of series [6] is SW-620. Nature of the series: Cytotoxicity against human SW620 cells assessed as inhibition of cell growth by MTT assay. In kind it is functional, cell-based.
Series [7] deals with PC-3. Kind of series: Potency index, ratio of vorinostat IC50 to test compound IC50 for cytotoxicity against human PC-3 cells assessed as inhibition of cell growth by MTT assay. In kind it is functional.
For series [8], the system named is SW-620. Nature of the series: Potency index, ratio of vorinostat IC50 to test compound IC50 for cytotoxicity against human SW620 cells assessed as inhibition of cell growth by MTT assay. In kind it is functional.
For the next series, the system named is NCI-H460. Nature of the series: Cytotoxicity against human NCI-H460 cells assessed as inhibition of cell growth by MTT assay. In kind it is functional, cell-based.
Series [9] deals with HepG2. Kind of series: Cytotoxicity against human HepG2 cells assessed as inhibition of cell growth by MTT assay. In kind it is functional, cell-based.
Another series concerns SMMC-7721. Nature of the series: Cytotoxicity against human SMMC-7721 cells assessed as inhibition of cell growth by MTT assay. In kind it is functional, cell-based.
The next series deals with EJ. Nature of the series: Cytotoxicity against human EJ cells assessed as inhibition of cell growth by MTT assay. In kind it is functional, cell-based.
Series [10] is described as follows: Cytotoxicity against chicken heart fibroblast cells. In kind it is toxicity, cell-based, Gallus gallus.
Series [11] can be described thus: Cytotoxicity against human MCF7/Topo cells assessed as inhibition of cell growth by MTT assay. In kind it is functional, cell-based.
A further series concerns KB-V1. Kind of series: Cytotoxicity against human vinblastine resistant KB-V1 cells assessed as inhibition of cell growth by MTT assay. In kind it is functional, cell-based.
A further series has as its system 518A2. Nature of the series: Cytotoxicity against human 518A2 cells assessed as inhibition of cell growth by MTT assay. In kind it is functional, cell-based.
A further series concerns PANC-1. Nature of the series: Cytotoxicity against human PANC-1 cells assessed as inhibition of cell growth by MTT assay. In kind it is functional, cell-based.
For the next series, the system named is HCT-116. Nature of the series: Cytotoxicity against human HCT-116 cells assessed as inhibition of cell growth by MTT assay. In kind it is functional, cell-based.
Another series relates to HT-29. Kind of series: Cytotoxicity against human HT-29 cells assessed as inhibition of cell growth by MTT assay. In kind it is functional, cell-based.
In series [12] the test system is MCF7. Nature of the series: Cytotoxicity against human MCF7 cells assessed as inhibition of cell growth by MTT assay. In kind it is functional, cell-based.
In series [13] the test system is MCF7. Kind of series: Cytotoxicity against human MCF7 cells assessed as inhibition of cell growth by SRB assay. In kind it is functional, cell-based. On the technique in general: Sulforhodamine B stains cellular protein and so reports cell mass.
Another series concerns HL-60. Nature of the series: Antiproliferative activity against human HL-60 cells assessed as inhibition of cell growth by MTT assay. In kind it is functional, cell-based.
For another series, the system named is SH-SY5Y. Kind of series: Antiproliferative activity against human SH-SY5Y cells assessed as inhibition of cell growth by MTT assay. In kind it is functional, cell-based.
The test system of series [14] is U-937. Kind of series: Antiproliferative activity against human U-937 cells assessed as inhibition of cell growth by MTT assay. In kind it is functional, cell-based.
In another series the test system is U-266. Kind of series: Antiproliferative activity against human U-266 cells assessed as inhibition of cell growth by MTT assay. In kind it is functional, cell-based.
The next series relates to NCI-H929. Kind of series: Antiproliferative activity against human NCI-H929 cells assessed as inhibition of cell growth by MTT assay. In kind it is functional, cell-based.
Series [15] relates to MCF7. Nature of the series: Antiproliferative activity against human MCF7 cells assessed as inhibition of cell growth by MTT assay. In kind it is functional, cell-based.
Series [16] concerns U-937. Kind of series: Cytotoxicity against human U-937 cells assessed as inhibition of cell growth by MTT assay. In kind it is functional, cell-based.
A further series deals with PLC-PRF-5. Nature of the series: Cytotoxicity against human PLC-PRF-5 cells assessed as inhibition of cell growth by MTT assay. In kind it is functional, cell-based.
In a further series the test system is ES-2. Nature of the series: Cytotoxicity against human ES2 cells assessed as inhibition of cell growth by MTT assay. In kind it is functional, cell-based.
The test system of a further series is K562. Kind of series: Cytotoxicity against human K562 cells assessed as inhibition of cell growth by MTT assay. In kind it is functional, cell-based.
In the next series the test system is MDA-MB-231. Nature of the series: Antitumor activity against human MDA-MB-231 cells xenografted in mouse assessed as reduction on tumor volume at 20 mg/kg, ip relative to control. More on the design: scale not given: the % may be the effect or the level left. In kind it is functional. In general terms: A xenograft is tissue or cells of one species grown in another, often human tumour cells in immunodeficient mice.

Description for U2OS: Cytotoxicity against human U2OS cells assessed as inhibition of cell growth measured after 72 hrs by MTT assay

For the compound `COc1cc(NC(C)CCCNC(=O)CCC(=O)NO)c2ncccc2c1` (configuration not stated), the IC50 in the series with U2OS, in the series with HepG2 [1] and in the series on MCF7 [2] was 1600 nM throughout.
Take `COc1cc2ncn(Cc3ccc(C(=O)NO)cc3)c(=O)c2cc1OC`: the IC50 is 620 nM in the series on NCI-H23 [3], 620 nM in the series on PC-3 [4], 370 nM against Histone deacetylase and 620 nM in the series with SW-620 [6]. The “Ratio IC50” value in the series on NCI-H23 [5], in the series on PC-3 [7] and in the series with SW-620 [8] was above 3 in each case.
Turning to `CC(C)=CCC/C(C)=C/CC/C(C)=C/CSc1ccccc1C(=O)O` [SALIRASIB], the IC50 with NCI-H460, in the series with HepG2 [9], in the series on SMMC-7721 and in the series with EJ was 48600 nM throughout.
Regarding `Cn1cnc(-c2ccc(F)cc2)c1-c1ccc(/C=C/C(=O)NO)cc1`, the IC50 in [10] was above 150000 nM; in [11], 300 nM; with KB-V1, 300 nM; in the series on 518A2, 300 nM; in the series with PANC-1, 300 nM; in the series with HCT-116, 300 nM. In the series on HT-29, the IC50 was 300 nM.
Turning to `CC(C)=CCC/C(C)=C/CC/C(C)=C/CSc1ccccc1C(=O)NCCC(=O)NO`, the IC50 in the series on NCI-H460, in the series on MCF7 [12], in the series on HepG2 [9], with SMMC-7721 and with EJ was 4930 nM in each case.
As for `Cc1ccc2c(=O)n(Cc3ccc(/C=C/C(=O)NO)cc3)cnc2c1`, the IC50 in the series with NCI-H23 [3] turned out to be 620 nM; with PC-3 [4] it was 620 nM; against Histone deacetylase, 170 nM; in the series with SW-620 [6] it was 620 nM. The “Ratio IC50” value in the series with NCI-H23 [5], in the series with PC-3 [7] and in the series with SW-620 [8] was above 3 in each case.
Regarding `O=C(/C=C/c1ccc(Cn2cnc3cc(F)ccc3c2=O)cc1)NO`, the IC50 is 620 nM in the series with NCI-H23 [3], 620 nM in the series with PC-3 [4], 150 nM at Histone deacetylase and 620 nM in the series on SW-620 [6]. Moreover, the “Ratio IC50” value with NCI-H23 [5], with PC-3 [7] and in the series on SW-620 [8] was above 3 each time.
`Cc1nc2ccc(Cl)cc2c(=O)n1Cc1ccc(C(=O)NO)cc1`: the half-inhibitory concentration (IC50) in the series with NCI-H23 [3] is 620 nM; in the series on PC-3 [4], 620 nM; against Histone deacetylase, 760 nM; in the series on SW-620 [6], 620 nM. The “Ratio IC50” value with NCI-H23 [5], in the series with PC-3 [7] and in the series with SW-620 [8] was above 3 each time.
Turning to `CC(C)=CCC/C(C)=C/CC/C(C)=C/CSc1ccccc1C(=O)NCCCC(=O)NO`, the IC50 with NCI-H460, in the series on MCF7 [12], in the series with HepG2 [9], in the series with SMMC-7721 and with EJ was 4930 nM in each case.
At Histone deacetylase, `COc1cc(/C=C2\N=C(c3ccccc3)N(n3c(SCC(=O)NO)nnc3-c3ccccc3)C2=O)ccc1O` registered an IC50 of 90 nM. In addition, in the series with MCF7 [13], the GI50 was 24900 nM.
As to `COc1cccc2c1C(=O)c1c(O)c3c(c(O)c1C2=O)C[C@@](O)(C(=O)CO)C[C@@H]3O[C@H]1C[C@H](N)[C@H](O)[C@H](C)O1` [DOXORUBICIN HYDROCHLORIDE], the GI50 with MCF7 [13] is 50200 nM.
Take `O=C(NO)c1cn(C2CCN(C(=O)c3ccc(-c4ccccc4)cc3)CC2)nn1`: the IC50 in the series with HL-60, with SH-SY5Y, with U-937 [14], in the series with U-266, in the series on NCI-H929 and in the series on MCF7 [15] was 1200 nM throughout.
With `NC(=O)N1N=C(c2ccccc2)CC1c1ccccc1OCC(=O)NO` (configuration not stated), the IC50 in the series with U-937 [16], in the series with PLC-PRF-5, in the series on PC-3 [4], in the series on ES-2, with HepG2 [9] and in the series with K562 was 18700 nM throughout.
As for `CC(C)C[C@H](NC(=O)[C@@H](O)[C@H](N)Cc1ccccc1)C(=O)O` [UBENIMEX], the IC50 with U-937 [16], with PLC-PRF-5, in the series with PC-3 [4], in the series with ES-2, in the series with HepG2 [9] and with K562 was above 500000 nM in each case.
Regarding `O=C(CCCCCCC(=O)Nc1ccccc1)NO` [VORINOSTAT], the Activity with MDA-MB-231 came to 40%.
On to `COc1cc(NC(C)CCCCCCNC(=O)CCC(=O)NO)c2ncccc2c1` (configuration not stated), for which the IC50 with U2OS, in the series with HepG2 [1] and in the series with MCF7 [2] was 1600 nM in each case.
Regarding `CCn1cnc(-c2ccc(OC)cc2)c1-c1ccc(/C=C/C(=O)NO)cc1`, the IC50 in series [10] was above 150000 nM; in [11], 300 nM; in the series with KB-V1 it was 300 nM; in the series on 518A2, 300 nM; in the series with PANC-1, 300 nM; in the series with HCT-116 it was 300 nM. For the same compound, the IC50 with HT-29 turned out to be 300 nM.
In the case of `COc1ccc(-c2ncn(C)c2-c2ccc(/C=C/C(=O)NO)cc2)cc1`, the IC50 in [10] was above 150000 nM; in series [11] it was 300 nM; in the series on KB-V1 it was 300 nM; in the series on 518A2, 300 nM; in the series on PANC-1, 300 nM; in the series on HCT-116, 300 nM. Besides, the IC50 in the series on HT-29 turned out to be 300 nM.
For `O=C(CCCCCCC(=O)Nc1cccc2ccn(S(=O)(=O)c3ccccc3)c12)NO`, in the series on MDA-MB-231, the Activity turned out to be 68%.
